Here are results for one compound from ChEMBL document CHEMBL5143537, “Quinazoline-based hydroxamic acid derivatives as dual histone methylation and deacetylation inhibitors for potential anticancer agents” (Bioorg Med Chem, 2022).

The term pIC50 denotes the IC50 on a negative log10 scale, so that one unit is a factor of ten. By half-life is commonly meant the time needed for the level to fall by half in the phase considered.

pIC50: −log10 of the molar value. Active and inactive are the calls of the source.

Series [1] has as its target T1, Protein deacetylase HDAC6 (Homo sapiens, UniProt Q9UBN7).
T1 sequence (Q9UBN7 whole entry): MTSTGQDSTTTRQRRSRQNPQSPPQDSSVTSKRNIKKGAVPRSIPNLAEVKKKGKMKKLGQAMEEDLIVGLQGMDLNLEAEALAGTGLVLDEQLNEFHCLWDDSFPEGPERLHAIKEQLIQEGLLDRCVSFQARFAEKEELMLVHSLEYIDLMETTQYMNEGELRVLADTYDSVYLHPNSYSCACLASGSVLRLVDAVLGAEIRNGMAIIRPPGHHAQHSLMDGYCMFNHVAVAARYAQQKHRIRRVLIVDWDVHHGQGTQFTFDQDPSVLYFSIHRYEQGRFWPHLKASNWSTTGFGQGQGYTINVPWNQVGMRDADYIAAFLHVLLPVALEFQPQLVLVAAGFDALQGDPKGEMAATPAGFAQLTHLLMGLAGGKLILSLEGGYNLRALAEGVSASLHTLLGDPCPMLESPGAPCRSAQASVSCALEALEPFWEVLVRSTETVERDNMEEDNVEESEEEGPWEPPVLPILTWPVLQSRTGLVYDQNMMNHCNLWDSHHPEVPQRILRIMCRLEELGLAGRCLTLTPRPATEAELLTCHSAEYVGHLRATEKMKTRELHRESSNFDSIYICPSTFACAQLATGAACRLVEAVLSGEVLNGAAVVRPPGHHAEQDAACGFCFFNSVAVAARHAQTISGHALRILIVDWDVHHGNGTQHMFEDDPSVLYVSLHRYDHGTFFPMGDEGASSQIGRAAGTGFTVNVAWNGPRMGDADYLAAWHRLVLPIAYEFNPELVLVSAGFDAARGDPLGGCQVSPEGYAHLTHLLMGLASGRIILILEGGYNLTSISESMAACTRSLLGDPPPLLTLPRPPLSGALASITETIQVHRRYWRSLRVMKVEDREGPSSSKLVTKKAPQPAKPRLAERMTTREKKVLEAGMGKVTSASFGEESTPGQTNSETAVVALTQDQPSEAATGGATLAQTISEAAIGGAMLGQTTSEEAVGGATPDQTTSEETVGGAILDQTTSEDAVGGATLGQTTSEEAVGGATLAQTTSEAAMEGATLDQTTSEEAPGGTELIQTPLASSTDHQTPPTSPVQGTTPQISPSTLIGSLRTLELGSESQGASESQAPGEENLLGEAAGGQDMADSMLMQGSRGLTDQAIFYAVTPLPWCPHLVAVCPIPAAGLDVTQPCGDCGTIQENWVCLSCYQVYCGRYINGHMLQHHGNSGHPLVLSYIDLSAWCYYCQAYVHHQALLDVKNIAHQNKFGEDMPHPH
Description: Inhibition of recombinant HDAC6 (unknown origin) using Ac-peptide-AMC as substrate preincubated for 15 mins followed by substrate addition and measured after 60 mins by fluorescence assay.

In series [2] the target is T2, Histone-lysine N-methyltransferase EHMT1 (Homo sapiens, UniProt Q9H9B1).
T2 sequence (Q9H9B1 whole entry): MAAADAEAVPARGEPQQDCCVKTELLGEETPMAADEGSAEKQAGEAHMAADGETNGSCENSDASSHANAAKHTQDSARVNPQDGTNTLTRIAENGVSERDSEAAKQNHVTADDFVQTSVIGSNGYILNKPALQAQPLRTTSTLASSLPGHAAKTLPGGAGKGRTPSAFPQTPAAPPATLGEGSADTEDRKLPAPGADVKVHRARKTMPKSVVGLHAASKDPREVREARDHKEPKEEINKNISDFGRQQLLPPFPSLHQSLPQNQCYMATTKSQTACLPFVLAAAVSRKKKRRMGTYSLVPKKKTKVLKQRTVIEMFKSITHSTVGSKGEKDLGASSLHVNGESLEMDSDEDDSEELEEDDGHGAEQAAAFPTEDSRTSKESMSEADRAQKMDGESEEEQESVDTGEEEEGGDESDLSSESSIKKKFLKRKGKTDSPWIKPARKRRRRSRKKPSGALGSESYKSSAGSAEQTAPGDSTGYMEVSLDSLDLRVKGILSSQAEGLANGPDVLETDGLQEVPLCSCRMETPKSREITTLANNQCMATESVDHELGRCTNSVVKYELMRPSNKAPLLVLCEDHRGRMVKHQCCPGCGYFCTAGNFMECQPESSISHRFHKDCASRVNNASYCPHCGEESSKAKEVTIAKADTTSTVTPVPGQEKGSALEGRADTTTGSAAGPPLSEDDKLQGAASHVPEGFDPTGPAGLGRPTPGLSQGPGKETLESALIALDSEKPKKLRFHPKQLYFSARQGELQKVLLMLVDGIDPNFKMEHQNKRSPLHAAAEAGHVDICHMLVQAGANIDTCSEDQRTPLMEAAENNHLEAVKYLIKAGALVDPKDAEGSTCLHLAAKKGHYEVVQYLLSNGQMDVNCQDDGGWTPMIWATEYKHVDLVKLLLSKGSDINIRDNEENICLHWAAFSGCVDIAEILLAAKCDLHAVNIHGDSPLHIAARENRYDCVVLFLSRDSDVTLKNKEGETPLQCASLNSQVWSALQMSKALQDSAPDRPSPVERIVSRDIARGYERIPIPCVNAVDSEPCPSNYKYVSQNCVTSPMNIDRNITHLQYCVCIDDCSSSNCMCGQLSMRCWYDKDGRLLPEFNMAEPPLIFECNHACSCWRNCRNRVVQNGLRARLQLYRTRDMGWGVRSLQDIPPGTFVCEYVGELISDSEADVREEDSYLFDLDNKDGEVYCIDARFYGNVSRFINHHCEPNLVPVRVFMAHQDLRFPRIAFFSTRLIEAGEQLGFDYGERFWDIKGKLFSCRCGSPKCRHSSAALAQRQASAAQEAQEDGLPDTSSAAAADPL
Description: Inhibition of GLP (unknown origin).

For the next series, the system named is A-431. Description: Antiproliferative activity against human A-431 cells measured after 72 hrs by MTT assay. In kind it is functional, cell-based. Particulars: A-431, 72 h. (In general: Formazan colour is commonly taken as a measure of viable cells.)
Another series concerns MDA-MB-231. Put plainly: Antiproliferative activity against human MDA-MB-231 cells measured after 72 hrs by MTT assay. In kind it is functional, cell-based. The conditions noted are these: MDA-MB-231, 72 h.
Series [3] relates to HepG2. Description: Induction of apoptosis in human HepG2 cells assessed as late apoptotic cells at 1.25 uM measured after 48 hrs by Annexin V-FITC/propidium iodide staining based flow cytometry (reference value: 4.55%). In kind it is functional.
Series [4] deals with HepG2. Description: Induction of apoptosis in human HepG2 cells assessed as late apoptotic cells at 5 uM measured after 48 hrs by Annexin V-FITC/propidium iodide staining based flow cytometry (reference value: 4.55%). In kind it is functional. For orientation: Flow cytometry measures light scatter and fluorescence of single cells or particles in a stream.
For series [5], the system named is HepG2. Description: Induction of apoptosis in human HepG2 cells assessed as increase in cleaved caspase-7 expression at 1.25 to 20 uM measured after 48 hrs by Western blot analysis. In kind it is functional, cell-based. Particulars: dose 1.25-20 µM. In general terms: A western blot detects proteins with antibodies after separation by electrophoresis.
Series [6] deals with HepG2. Put plainly: Cell cycle arrest in human HepG2 cells assessed as increase in p21 expression measured after 24 hrs by Western blot analysis. In kind it is functional, cell-based. Particulars: dose 1.25-20 µM, DDE = dose-dependent effect.
The nature of series [7]: Metabolic stability in rat liver microsomes assessed as parent compound remaining at 1 uM measured after 30 mins by LC-MS/MS analysis. In kind it is ADME, Microsome. The conditions noted are these: read-out: Stability.
Series [8] in a line: Half life in rat liver microsomes at 1 uM by LC-MS/MS analysis. In kind it is ADME, Microsome.

For the compound `COc1cc2nc(N3CCN(CCCCCC(=O)NO)CC3)nc(NC3CCN(Cc4ccccc4)CC3)c2cc1OC`, the pIC50 in series [1] was 7.89; in series [2] it was 8.89; in the series with A-431, 5.62; in the series on MDA-MB-231 it was 5.03. In addition, the Activity in the series with HepG2 [3] is 2.68%; in the series on HepG2 [4], 4.14%; in the series on HepG2 [6], “Dde”. Also, the result in the series with HepG2 [5] was Active. The remaining at 0.5 h, 1 µM in [7] is 26.8%. The compound also gave a half-life at 1 µM in [8] of 16 min.
